Structures can show the parent of a compound that is named as a salt.
Experiments:
[1] = cited from earlier work; for bladder capacity: anaesthetized guinea-pig cystometry; for urethral EMG activity: anaesthetized guinea-pig urethral EMG model
[2] = conscious rats and monkeys; i.v., i.p., s.c. or i.m. administration; cited from earlier work
[3] = man; cited from earlier work
[4] = anaesthetized dog; cited from earlier work
[5] = target: T1, human recombinant 5-HT2c receptor (Homo sapiens, UniProt P28335); assay: FLIPR fluorescent Ca2+ mobilisation agonist assay in CHO K1 cells (Method 1); format: cell-based; details: for EC50: agonist affinity, FLIPR
T1 construct: expressed in transfected cells; host or cells: CHO K1 (Chinese hamster ovary), stably transfected
T1 sequence (P28335 33-458): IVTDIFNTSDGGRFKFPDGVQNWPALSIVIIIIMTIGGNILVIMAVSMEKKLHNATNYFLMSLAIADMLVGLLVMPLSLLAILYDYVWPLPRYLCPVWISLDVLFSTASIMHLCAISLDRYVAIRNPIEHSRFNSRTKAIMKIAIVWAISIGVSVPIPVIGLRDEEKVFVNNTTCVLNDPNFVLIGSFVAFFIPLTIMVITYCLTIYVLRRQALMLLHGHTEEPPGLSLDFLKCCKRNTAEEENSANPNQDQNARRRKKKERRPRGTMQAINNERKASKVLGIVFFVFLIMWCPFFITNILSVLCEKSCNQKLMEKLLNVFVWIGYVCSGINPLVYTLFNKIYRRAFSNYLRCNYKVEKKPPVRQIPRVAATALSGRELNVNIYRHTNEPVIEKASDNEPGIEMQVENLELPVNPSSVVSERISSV

[6] = target: T1, human recombinant 5-HT2c receptor; assay: 3H-meselurgine radioligand binding SPA, membranes from Swiss 3T3 cells (Method 2); details: 3H-meselurgine displacement, Cheng-Prusoff; Swiss 3T3 membranes; read-out: Binding Affinity Ki
Experimental: The compounds of the invention were evaluated for biological activity by measuring the agonist affinity (EC50) and efficacy (Emax) at the human recombinant 5-HT2c receptor expressed in CHO K1 cells, using a fluorescent based Ca^2+ mobilisation assay format compatible with FLIPR technology (Method 1). Additionally, the binding activity of a compound was determined by measuring its affinity for the human recombinant 5-HT2c receptor membranes from Swiss 3T3 cells (Method 2).
The compounds were tested for biological activity by their ability to inhibit binding of the radioligand ^3H-meselurgine at the human recombinant 5-HT2C receptor expressed in the Swiss 3T3 cells using a scintillation proximity assay (SPA) technology.
Swiss 3T3 stably transfected with the 5-HT2C receptor were cultured under standard cell culture techniques. Specifically, cells were grown in 50 mL growth medium (Dulbecco's Modified Eagle's Medium (DMEM) culture media supplemented with 10% dialysed foetal calf serum (FCS), 2 mM penicillin/streptomycin and 20 μg/mL geneticin) in 225 cm^2 flasks at 37° C. and 5% CO2. Cells were grown to 60-80% confluency, harvested using trypsin-EDTA and pelleted by centrifugation for long-term storage at −80° C.
Cell pellets were thawed on ice and resuspended in 3 mL of membrane preparation buffer (see Media and Buffers for composition) per 1 mL of packed cell. The suspension was homogenised on ice for several 5 s intervals using a hand-held homogeniser. The homogenate was then centrifuged at 1,000 rpm for 5 min at 4° C.
The supernatants were then collected and retained. Initial cell & nuclei pellets (P1) were subsequently rehomogenised and centrifuged using the conditions cited above, and the supernatants collected and pooled with those retained from the first spin.
The pooled supernatants were centrifuged at 19,500 rpm for 45 min at 4° C., and the supernatants discarded. The pellets (P2) were then resuspended in 3 mL of membrane preparation buffer per 1 mL of the original packed cell volume. Protein concentrations were subsequently measured and the membrane suspension was finally frozen in aliquots of set volume and stored at −80° C. prior to use in assays.
For each batch of membrane used, optimal concentrations of Polylysine YSi SPA beads and membrane were determined. The assay free radioligand concentration was expressed as a percentage of the total free radioligand concentration to give an estimate of the radioligand depletion.
The affinity of ^3H-meselurgine for the human recombinant 5-HT2c receptor was determined for each membrane batch at the selected protein and bead concentrations. […] The mean KD for ^3H-meselurgine at a batch of membranes was determined from data from a minimum of three separate assays.
The required amount of membrane, was thawed on ice and added to a pre-determined volume of bead suspension in 50 mM HEPES buffer, pH 7.4. The beads were then pre-coupled by incubating the predetermined protein quantity per mg of bead on a roller 4° C. for 1 h. Subsequently, the bead/membrane complex was spun down at 1000 rpm for 5 min. The resulting pellet was resuspended in assay buffer at the specific concentration required for the final assay.
An aliquot of [^3H]-meselurgine stock was diluted in binding assay buffer to give a pre-determined final assay concentration less than the equilibrium dissociation constant (KD) value.
All test compounds were prepared at a concentration of 4 mM in 100% dimethyl sulphoxide (DMSO) from dry samples.
The same volume of assay buffer was added to specific wells of the plate to enable subsequent measurement of total radioligand binding. Furthermore, 5 μL of Mianserin at 25 μM (2.5 μM final assay concentration was subsequently added to pre-determined wells to determine non-specific binding (NSB).

[7] = CHO-K1, efficacy, percentage of mean maximal response to 10 μM 5-HT
[8] = efficacy, percentage of mean maximal response to 10 μM 5-HT

| Molecule | Emax [5, 7] | EC50 [5] | Ki [6] | other results |
| --- | --- | --- | --- | --- |
| Clc1cccc(N2CCNCC2)c1 [m-CPP] |  |  |  | bladder capacity [1]: doses related increases; urethral EMG activity [1]: doses related increases; penile erection [2]: enhance penile erection; proerectile activity [3]: associated with proerectile activity |
| C[C@H](N)Cn1ccc2cc(F)c(Cl)cc21 [Ro-60-0175] |  |  |  | urethral pressure [4]: increased urethral pressure in a dose-dependent manner; bladder capacity [1]: doses related increases; urethral EMG activity [1]: doses related increases; penile erection [2]: enhance penile erection |
| O=c1n(CCCN2CCN(c3cccc(Cl)c3)CC2)nc2ccccn12 [trazodone] |  |  |  | proerectile activity [3]: associated with proerectile activity |
| CC1CCCN(c2nc(Cc3ccccc3)nc3c2CCNCC3)C1 (centres unmarked) [Example 30, 2-benzyl-4-(3-methylpiperidin-1-yl)-6,7,8,9-tetrahydro-5H-pyrimido[4,5-d]azepine hydrochloride] | 54.8% | 984 nM | 99.1 nM |  |
| CCNc1nc(N(C)CC)nc2c1CCNCC2 [Example 98, N-2,N-4-diethyl-N-2-methyl-6,7,8,9-tetra-hydro-5H-pyrimido[4,5-d]-azepin-4-amine] | 61.7% | 77 nM | 16.3 nM |  |
| C1CCN(c2nc3c(c(N4CCSCC4)n2)CCNCC3)C1 [Example 106, 2-pyrrolodin-1-yl-4-thiomorpholin-4-yl-6,7,8,9-tetrahydro-5H-pyrimido[4,5-d]azepine] | 78.4% | 100 nM | 41.6 nM |  |
| Clc1cccc(Cc2ncc3c(n2)CCNCC3)c1 [Example 56, 2-(3-Chlorobenzyl)-6,7,8,9-tetrahydro-5H-pyrimido[4,5-d]azepine] |  | 180 nM | 83.9 nM | Emax [5, 8]: 55.9% |
| COc1nc(N(C)Cc2ccccc2)nc2c1CCNCC2 [Example 16, N-benzyl-4-methoxy-N-methyl-6,7,8,9-tetrahydro-5H-pyrimido[4,5,d]azepin-2-amine] | 41.4% | 526 nM | 54.7 nM |  |
| 2-[Difluoro(phenyl)methyl]-N-methyl-6,7,8,9-tetrahydro-5H-pyrimido[4,5-d]azepin-4-amine [Example 8] |  | 128 nM | 44.5 nM | Emax % [5, 8]: 54.30% |
| COc1nc(C(F)(F)c2ccccc2)nc2c1CCNCC2 [Example 72A, 2-(Difluoro-phenyl-methyl)-4-methoxy-6,7,8,9-tetrahydro-5H-pyrimido[4,5-d]azepine hydrochloride] |  | 35.6 nM | 15 nM | Emax [5, 8]: 31.9% |
| c1ccc(C2(c3nc4c(c(N5CCOCC5)n3)CCNCC4)CC2)cc1 [Example 13, 4-Morpholin-4-yl-2-(1-phenylcyclopropyl)-6,7,8,9-tetrahydro-5H-pyrimido[4,5-d]azepine] | 64.4% | 499 nM | 2300 nM |  |
| CCCCc1nc(Cc2ccccc2)nc2c1CCNCC2 [Example 69, 2-Benzyl-4-butyl-6,7,8,9-tetrahydro-5H-pyrimido[4,5-d]azepine] | 77.1% | 274 nM | 153 nM |  |
| CCc1cc2c(ccc3cnn(C[C@H](C)N)c32)o1 [YM348] |  |  |  | bladder capacity [1]: doses related increases; urethral EMG activity [1]: doses related increases |
| OC1(CNc2nc(Cc3ccccc3)nc3c2CCNCC3)CCC1 [Example 41, 1-{[(2-benzyl-6,7,8,9-tetrahydro-5H-pyrimido[4,5-d]azepin-4-yl)amino]methyl}cyclobutanol hydrochloride] | 74.7% | 57 nM | 86.9 nM |  |
| Cc1ccccc1Cc1ncc2c(n1)CCNCC2 [Example 66, 2-(2-Methylbenzyl)-6,7,8,9-tetrahydro-5H-pyrimido[4,5-d]azepine] | 70.5% | 332 nM | 304 nM |  |
| N#CC1CCCN(c2nc(Cc3ccccc3)nc3c2CCNCC3)C1 (centres unmarked) [Example 40, 1-(2-benzyl-6,7,8,9-tetrahydro-5H-pyrimido[4,5-d]azepin-4-yl)piperidine-3-carbonitrile hydrochloride] | 40.6% | 309 nM | 413 nM |  |
| C[C@H]1COCCN1c1nc(Cc2ccccc2)nc2c1CCNCC2 [Example 45, 2-benzyl-4-[(3S)-3-methylmorpholin-4-yl]-6,7,8,9-tetrahydro-5H-pyrimido[4,5-d]azepine hydrochloride] | 88.4% | 69.5 nM | 28.4 nM |  |
| CC(C)[C@@H](CO)Nc1nc(Cc2ccccc2)nc2c1CCNCC2 [Example 24, (2S)-2-[(2-benzyl-6,7,8,9-tetrahydro-5H-pyrimido[4,5-d]azepin-4-yl)amino]-3-methylbutan-1-ol hydrochloride] | 69.9% | 119 nM | 91.4 nM |  |
| c1ccc(Cc2nc3c(c(NCCn4cccn4)n2)CCNCC3)cc1 [Example 27, 2-benzyl-N-[2-(1H-pyrazol-1-yl)ethyl]-6,7,8,9-tetrahydro-5H-pyrimido[4,5-d]azepin-4-amine hydrochloride] | 35% | 57.2 nM | 25.4 nM |  |
| CCOc1nc(C(C)c2ccccc2)nc2c1CCNCC2 (centres unmarked) [Example 59, 4-Ethoxy-2-(1-phenylethyl)-6,7,8,9-tetrahydro-5H-pyrimido[4,5-d]azepine] | 33.1% | 107 nM | 49.3 nM |  |
| c1ccc(Cc2nc3c(c(-n4ccnc4)n2)CCNCC3)cc1 [Example 55, 2-Benzyl-4-imidazol-1-yl-6,7,8,9-tetrahydro-5H-pyrimido[4,5-d]azepine] | 72.6% | 263 nM | 380 nM |  |
| c1ccc(Cc2nc3c(c(N4CCCCC4)n2)CCNCC3)cc1 [Example 29, 2-benzyl-4-piperidin-1-yl-6,7,8,9-tetrahydro-5H-pyrimido[4,5-d]azepine hydrochloride] | 37.7% | 962 nM | 177 nM |  |
